This note sets out measurements from patent US10849907B2, “Imidazopyridine derivatives and the use thereof as medicament” (Boehringer Ingelheim International GmbH, priority 2017, dated 2020).

pIC50: −log10 of the molar value.

For orientation: Papp A→B means the apparent permeability from the apical to the basolateral side of a cell layer. A low value points to poor permeation. A word on the efflux ratio: it is the permeability from basolateral to apical divided by that in the opposite direction, in the common usage. In general, pIC50 refers to the negative decadic logarithm of the IC50, by convention in mol/L.

The target in one series is T1, human MDR1 (P-gp) (Homo sapiens, UniProt P08183).
T1 construct: expressed in transfected cells; host or cells: MDCKII (Madin-Darby canine kidney) cells
The experiment in a line: MDCK assay MDR-1 (p-GP): permeability across MDCK-MDR1 monolayers. The format is in vitro ADME. The note with it: for Papp A→B: MDCK-MDR1 monolayers, apical-to-basal, pH 7.4, 1 or 10 μM; for efflux ratio: pH 7.4, MDCK-MDR1, Papp (b-a) divided by Papp (a-b). The protocol:
The MDCK assays provide information on the potential of a compound to pass the blood brain barrier. Permeability measurements across polarized, confluent MDCK-MDR1 cell monolayers grown on permeable filter supports are used as an in vitro absorption model: apparent permeability coefficients (PE) of the compounds across the MDCK-MDR1 cell monolayers are measured (pH 7.4, 37° C.) in apical-to-basal (AB) and basal-to-apical (BA) transport direction. The AB permeability (PEAB) represents drug absorption from the blood into the brain and the BA permeability (PEBA) drug efflux from the brain back into the blood via both, passive permeability as well as active transport mechanisms mediated by efflux and uptake transporters that are expressed on the MDCK-MDR1 cells, predominantly by the overexpressed human MDR1. Identical or similar permeabilities in both transport directions indicate passive permeation, vectorial permeability points to additional active transport mechanisms. Higher PEBA than PEAB (PEBA/PEAB >5) indicates the involvement of active efflux mediated by MDR1, which might compromise the goal to achieve sufficient brain exposure. Therefore, this assay provides valuable support for selection of compounds applicable for further in vivo testing. High permeability not limited by efflux at the blood brain barrier is a favourable characteristic for compounds that are to be used for drugs acting primarily in the CNS. Similar concepts are applicable to the MDCK BCRP assay and its interpretation; consequently, to ensure high permeability at the blood brain barrier, it is highly preferred to minimize the efflux (efflux <5) at both MDR1 and BCRP transporters.
Apparent permeability coefficients (Papp) of the compounds across the MDCK-MDR1 monolayers (MDCKII cells transfected with human MDR1 cDNA expression plasmid) are measured in apical-to-basal (AB) and basal-to-apical (BA) direction.
MDCK-MDR1 cells (6×10^5 cells/cm^2) are seeded on filter inserts (Corning, Transwell, polycarbonate, 0.4 μm pore size) and cultured for 9 to 10 days. Compounds dissolved in DMSO stock solution (1-20 mM) are diluted with HTP-4 aqueous buffer (128.13 mM NaCl, 5.36 mM KCl, 1 mM MgSO4, 1.8 mM CaCl2, 4.17 mM NaHCO3, 1.19 mM Na2HPO4, 0.41 mM NaH2PO4, 15 mM HEPES, 20 mM glucose, pH 7.4) supplemented with 0.25% BSA to prepare the transport solutions (final concentration: 1 or 10 μM, final DMSO <=0.5%). The transport solution is applied to the apical or basolateral donor side for measuring A-B or B-A permeability, respectively. The receiver side contains HTP-4 buffer supplemented with 0.25% BSA. Samples are collected at the start and end of experiment from the donor and at various time intervals for up to 2 hours also from the receiver side for concentration measurement by HPLC-MS/MS. Sampled receiver volumes are replaced with fresh receiver solution. Efflux ratio is calculated dividing the Papp (b-a) values by the Papp (a-b) values.

Another series concerns the target T2, NMDA NR1/NR2B receptor (Homo sapiens, UniProt Q05586+Q13224).
T2 construct: host or cells: HEK293, tetracycline-inducible expression
Description: In vitro NMDA NR1/NR2b cell assay (FLIPR, intracellular calcium induced by glycine/glutamate). The class given is cell-based. The note with it: HEK293 cells expressing NMDA NR1/NR2B, 20 μM glycine, 1 μM glutamate, compounds of the invention (Table 1). On the procedure:
A human HEK293 cell line with tetracyclin-inducible expression of NMDA NR1/NR2B receptor was used as a test system for compound efficacy and potency. The cell line was purchased from ChanTest, Catalog # CT6121. Compound activity was determined by measuring the effect of compounds on intracellular calcium concentration induced by glycine/glutamate agonism in a FLIPRtetra system (Molecular Devices).
The cells were obtained as frozen cells in cryo-vials and stored until use at −150° C. Cells were grown in culture medium (DMEM/F12, 10% FBS, 5 μg/mL Blasticidin, 150 μg/mL Zeozin, 500 μg/mL Geneticin). […] For sub-culturing the cells were detached from flasks by Versene. For the assay, cells were detached, washed twice with induction medium (DMEM/F12 without glutamine, 10% FBS, 2 μg/mL Tetracycline, 2 mM Ketamine) and seeded to 384 well pure coat amine plates (BD 359324, 50000 cells per well in 50 μl) 48 h prior to assay in induction medium.
The test compounds were dissolved in 100% DMSO at a concentration of 10 mM and in a first step diluted in DMSO to a concentration of 5 mM, followed by serial dilution steps in 100% DMSO. Dilution factor and number of dilution steps may vary according to needs. Typically 8 different concentrations by 1:5 dilutions were prepared in duplicate, further intermediate dilutions (1:37.5) of the substances were carried out with aqueous assay buffer (137 mM NaCl, 4 mM KCl, 1.8 mM CaCl, 10 mM HEPES, 10 mM Glucose, pH 7.4) resulting in a compound concentration 3 times above the final test concentration and DMSO at 2.7% resulting in 0.9% final DMSO concentration in the assay.
At the assay day cells were washed 3× with assay puffer, 10 μL buffer remained in the wells after washing. 10 μL Ca kit loading buffer (AAT Bioquest) was added to the cells and the plates were incubated with lid for 60 minutes at r.t. 20 μl assay buffer containing 60 μM glycine (20 μM final) and 3 μM glutamate (1 μM final) was added to column 1-23. Fluorescence (indicating the calcium influx as a result of the NR1/NR2B ion channel activation) was read on the FLIPRtetra device for 60 seconds to monitor the glutamate induced effects. After 2 minutes 20 μL of compound or controls (row 1-22) in assay buffer were carefully added to the wells. […] The average of 2 measurements at 5 minutes and 5 min 10 seconds after compound addition is calculated and further used for IC50 calculations. Each assay microtiter plate contained wells (in column 23 or 24) with DMSO controls instead of compound as controls for glycine/glutamate induced fluorescence (high controls) and wells with 1 μM of a reference NR2b NAM as low controls (Compound 22; reference: Layton, Mark E et al, ACS Chemical Neuroscience 2011, 2(7), 352-362).
The output file of the reader contains the well number and measured average fluorescence units. For data evaluation and calculation, the measurement of the low control was set as 0% control and the measurement of the high control was set as 100% control. The IC50 values were calculated using the standard 4 parameter logistic regression formula. Calculation: [y=(a−d)/(1+(x/c)^b)+d], a=low value, d=high value; x=conc M; c=IC50 M; b=slope.
Background: Calcium assays in cells follow changes in intracellular calcium, usually with a dye or a luminescent sensor.

T1 sequence (P08183 whole entry): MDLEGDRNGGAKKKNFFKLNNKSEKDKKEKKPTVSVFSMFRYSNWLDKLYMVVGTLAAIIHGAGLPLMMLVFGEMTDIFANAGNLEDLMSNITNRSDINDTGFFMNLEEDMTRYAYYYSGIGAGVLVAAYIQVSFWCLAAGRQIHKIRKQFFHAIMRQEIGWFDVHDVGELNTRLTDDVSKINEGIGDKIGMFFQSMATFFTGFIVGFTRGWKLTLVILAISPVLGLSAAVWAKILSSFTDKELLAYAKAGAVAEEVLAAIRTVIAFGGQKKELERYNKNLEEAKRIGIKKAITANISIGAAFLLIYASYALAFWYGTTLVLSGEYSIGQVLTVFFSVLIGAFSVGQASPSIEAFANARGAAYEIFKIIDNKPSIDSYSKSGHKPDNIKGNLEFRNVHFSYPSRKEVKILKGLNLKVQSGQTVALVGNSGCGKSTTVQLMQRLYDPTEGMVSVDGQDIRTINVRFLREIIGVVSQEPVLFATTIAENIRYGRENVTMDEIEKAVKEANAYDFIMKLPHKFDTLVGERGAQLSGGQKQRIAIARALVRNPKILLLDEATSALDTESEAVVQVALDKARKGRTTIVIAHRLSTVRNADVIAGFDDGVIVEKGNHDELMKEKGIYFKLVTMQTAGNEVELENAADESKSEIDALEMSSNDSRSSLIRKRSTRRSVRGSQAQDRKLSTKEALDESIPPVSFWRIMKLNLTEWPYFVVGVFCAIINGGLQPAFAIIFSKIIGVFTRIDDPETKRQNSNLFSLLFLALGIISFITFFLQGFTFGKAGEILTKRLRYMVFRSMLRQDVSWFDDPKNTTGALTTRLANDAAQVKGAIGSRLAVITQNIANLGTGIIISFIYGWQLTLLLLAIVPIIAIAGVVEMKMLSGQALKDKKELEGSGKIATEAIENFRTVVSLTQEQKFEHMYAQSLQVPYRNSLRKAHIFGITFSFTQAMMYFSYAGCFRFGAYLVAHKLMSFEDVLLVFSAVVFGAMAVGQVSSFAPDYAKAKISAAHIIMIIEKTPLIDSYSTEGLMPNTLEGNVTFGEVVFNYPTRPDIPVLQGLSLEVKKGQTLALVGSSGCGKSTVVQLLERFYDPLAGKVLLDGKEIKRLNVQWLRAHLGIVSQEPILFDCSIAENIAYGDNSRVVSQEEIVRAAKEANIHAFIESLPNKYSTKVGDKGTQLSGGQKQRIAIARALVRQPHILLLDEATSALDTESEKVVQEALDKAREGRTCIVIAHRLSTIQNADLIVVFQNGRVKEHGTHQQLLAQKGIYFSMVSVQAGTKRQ
T2 sequence (Q13224 27-1484, other chains not shown): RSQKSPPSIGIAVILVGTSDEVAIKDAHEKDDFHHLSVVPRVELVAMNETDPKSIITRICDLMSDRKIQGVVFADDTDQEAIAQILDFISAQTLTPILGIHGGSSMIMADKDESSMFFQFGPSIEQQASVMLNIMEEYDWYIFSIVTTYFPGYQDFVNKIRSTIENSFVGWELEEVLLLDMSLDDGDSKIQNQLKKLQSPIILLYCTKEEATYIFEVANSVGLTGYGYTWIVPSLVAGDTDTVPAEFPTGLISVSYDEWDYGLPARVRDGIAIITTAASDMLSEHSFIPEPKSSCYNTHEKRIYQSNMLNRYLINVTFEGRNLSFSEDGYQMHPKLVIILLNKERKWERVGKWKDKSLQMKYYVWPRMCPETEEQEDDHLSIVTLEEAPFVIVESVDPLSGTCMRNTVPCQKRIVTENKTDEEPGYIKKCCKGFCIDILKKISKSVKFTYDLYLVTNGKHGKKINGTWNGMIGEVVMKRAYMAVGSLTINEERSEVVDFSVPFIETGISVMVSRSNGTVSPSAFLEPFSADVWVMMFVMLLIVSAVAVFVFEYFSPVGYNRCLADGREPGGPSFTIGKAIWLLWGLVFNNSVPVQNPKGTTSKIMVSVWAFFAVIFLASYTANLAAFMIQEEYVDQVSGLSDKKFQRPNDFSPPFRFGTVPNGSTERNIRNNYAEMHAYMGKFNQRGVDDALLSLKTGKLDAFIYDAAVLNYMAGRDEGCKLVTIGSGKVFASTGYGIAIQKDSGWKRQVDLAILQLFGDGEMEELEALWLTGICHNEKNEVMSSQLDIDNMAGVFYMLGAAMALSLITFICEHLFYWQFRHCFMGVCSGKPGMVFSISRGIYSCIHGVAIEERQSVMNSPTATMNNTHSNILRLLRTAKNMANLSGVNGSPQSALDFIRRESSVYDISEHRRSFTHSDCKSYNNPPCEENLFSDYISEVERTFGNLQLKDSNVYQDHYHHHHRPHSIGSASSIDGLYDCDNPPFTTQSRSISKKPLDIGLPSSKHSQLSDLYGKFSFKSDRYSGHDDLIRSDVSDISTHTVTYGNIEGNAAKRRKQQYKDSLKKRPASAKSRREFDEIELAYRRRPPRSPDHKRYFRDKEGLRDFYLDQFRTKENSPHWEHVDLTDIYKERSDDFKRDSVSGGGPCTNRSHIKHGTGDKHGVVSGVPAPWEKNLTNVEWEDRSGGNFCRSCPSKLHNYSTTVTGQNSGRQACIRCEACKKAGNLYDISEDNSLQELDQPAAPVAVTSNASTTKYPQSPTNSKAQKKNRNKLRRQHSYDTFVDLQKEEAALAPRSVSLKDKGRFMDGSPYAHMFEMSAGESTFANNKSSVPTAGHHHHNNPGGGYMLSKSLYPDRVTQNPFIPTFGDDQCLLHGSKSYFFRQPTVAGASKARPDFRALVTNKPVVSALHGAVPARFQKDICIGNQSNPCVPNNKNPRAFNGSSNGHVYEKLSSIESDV

For `O=C(OCc1cccc(F)c1)N1CCO[C@H](c2nc3cccnc3[nH]2)C1` [Example 1], on human MDR1 (P-gp), the apical-to-basolateral permeability (Papp A→B) was determined as 61 ×10⁻⁶ cm/s and the efflux ratio stood at 0.9. The pIC50 at NMDA NR1/NR2B receptor is 6.39.
In the case of `O=C(OCc1ccc(F)cc1)N1CCO[C@H](c2nc3cccnc3[nH]2)C1` [Example 2], at human MDR1 (P-gp), the Papp A→B amounted to 31.5 ×10⁻⁶ cm/s and the efflux ratio turned out to be 1.7. Further, the pIC50 at NMDA NR1/NR2B receptor is 7.08.
For `Cc1ccccc1COC(=O)N1CCO[C@H](c2nc3cccnc3[nH]2)C1` [Example 8], at human MDR1 (P-gp), the apparent permeability from apical to basolateral (Papp A→B) was 39 ×10⁻⁶ cm/s and the efflux ratio was found to be 1.6. Besides, the pIC50 on NMDA NR1/NR2B receptor was 6.39.
As to `Cc1cccc(F)c1COC(=O)N1CCO[C@H](c2nc3cccnc3[nH]2)C1` [Example 10], at human MDR1 (P-gp), the Papp A→B was 37 ×10⁻⁶ cm/s and the efflux ratio worked out at 1.6. Also, the pIC50 on NMDA NR1/NR2B receptor is 6.81.
Take `Cc1ccc(COC(=O)N2CCO[C@H](c3nc4cccnc4[nH]3)C2)c(F)c1` [Example 11]: on human MDR1 (P-gp), the Papp A→B amounted to 32 ×10⁻⁶ cm/s and the efflux ratio is 1.4. Besides, the negative-log IC50 (pIC50) on NMDA NR1/NR2B receptor was 7.26.
On the same counts, the results for `Cc1ccc(COC(=O)N2CCO[C@H](c3nc4cccnc4[nH]3)C2)cc1F` [Example 12] are 46 ×10⁻⁶ cm/s, 0.9 and 7.14.
With `O=C(OCc1ccc(F)cc1Cl)N1CCO[C@H](c2nc3cccnc3[nH]2)C1` [Example 13], at human MDR1 (P-gp), the apparent permeability from apical to basolateral (Papp A→B) was 35 ×10⁻⁶ cm/s and the efflux ratio was determined as 1.3. Also, the pIC50 on NMDA NR1/NR2B receptor was 6.91.
For `O=C(OCc1ccccc1Cl)N1CCO[C@H](c2nc3cccnc3[nH]2)C1` [Example 14], at human MDR1 (P-gp), the apparent permeability from apical to basolateral (Papp A→B) was 38 ×10⁻⁶ cm/s and the efflux ratio stood at 1.1. Moreover, the pIC50 at NMDA NR1/NR2B receptor was 6.92.
On to `O=C(OCc1cccc(F)c1F)N1CCO[C@H](c2nc3cccnc3[nH]2)C1` [Example 15], for which, at human MDR1 (P-gp), the Papp A→B worked out at 59 ×10⁻⁶ cm/s and the efflux ratio is 1.2. Further, the pIC50 on NMDA NR1/NR2B receptor was 7.03.
On the same counts, the results for `O=C(OCc1c(F)cccc1F)N1CCO[C@H](c2nc3cccnc3[nH]2)C1` [Example 16] are 41 ×10⁻⁶ cm/s, 1.2 and 6.98.
Consider `O=C(OCc1ccccc1)N1CCO[C@H](c2nc3cccnc3[nH]2)C1` [Example 17], for which, at human MDR1 (P-gp), the apparent permeability from apical to basolateral (Papp A→B) was determined as 40 ×10⁻⁶ cm/s and the efflux ratio is 1.3. Besides, the negative-log IC50 (pIC50) on NMDA NR1/NR2B receptor is 7.12.
With `Cc1ccc(COC(=O)N2CCO[C@H](c3nc4cccnc4[nH]3)C2)cc1` [Example 18], at human MDR1 (P-gp), the apical-to-basolateral permeability (Papp A→B) is 37 ×10⁻⁶ cm/s and the efflux ratio was determined as 1.3. For the same molecule, at NMDA NR1/NR2B receptor, the pIC50 was 7.27.
Take `O=C(OCc1ccc(F)cc1F)N1CCO[C@H](c2nc3cccnc3[nH]2)C1` [Example 19]: on human MDR1 (P-gp), the apparent permeability from apical to basolateral (Papp A→B) came to 42 ×10⁻⁶ cm/s and the efflux ratio came to 1.6. The pIC50 on NMDA NR1/NR2B receptor is 6.89.
For `O=C(OCc1ccc(C(F)F)cc1)N1CCO[C@H](c2nc3cccnc3[nH]2)C1` [Example 26] the same measures were 32 ×10⁻⁶ cm/s, 2 and 7.11.
On the same counts, the results for `O=C(OCc1ccccc1F)N1CCO[C@H](c2nc3cccnc3[nH]2)C1` [Example 27] are 65 ×10⁻⁶ cm/s, 1.2 and 7.02.
As to `O=C(OCc1ccc(Cl)cc1)N1CCO[C@H](c2nc3cccnc3[nH]2)C1` [Example 28], at human MDR1 (P-gp), the Papp A→B was 42 ×10⁻⁶ cm/s and the efflux ratio was 1.1. Besides, the negative-log IC50 (pIC50) at NMDA NR1/NR2B receptor is 7.38.
Regarding `Cc1ccc(COC(=O)N2CCO[C@H](c3nc4cc(F)cnc4[nH]3)C2)cc1` [Example 31], on human MDR1 (P-gp), the Papp A→B turned out to be 18 ×10⁻⁶ cm/s and the efflux ratio is 1.8. Moreover, the pIC50 on NMDA NR1/NR2B receptor was 6.88.
